We go through 4 compounds from US9709557B2, “Anthraquinone based near IR emitting compounds and uses thereof” (LIFE TECHNOLOGIES CORPORATION, priority 2008, dated 2017).

A value given as a limit tells only on which side of the number the result lay.

Data set [1] concerns Live Jurkat cells. Kind of data set: DNA staining of live cells and cell cycle analysis using flow cytometry (Examples 42, 43). It is filed as cell-based, human. The procedure: Live Jurkat cells are suspended at 5×10^5 cells/ml in each RPMI media with 10% FBS. Compound 19 is added to each of one mL cell suspensions at concentrations 5 μM, 10 μM, and 20 μM, and then incubated at 37° C. for 30 minutes while protected from light. Cells are run through the Becton Dickinson (BD) LSRII Flow Cytometer. Forward Scatter (FS) vs Side Scatter (SS) dual parameter plot is used to gate main cell population. Fluorescence is collected using […]: the 488 nm excitation laser with 780/60 bandpass emission filter, and using the 633 nm excitation laser with 780/60 bandpass emission filters, collecting 10,000 events at flow rate of ˜200 events/second. The data is further analyzed using MODFIT LT Flow Cytometry Modeling Software from Verity Software House, Inc. to look at ratio of G2/G1 and the % CV of G1 phase. […] Typical DNA content cell cycle histograms indicate G0G1 phase, S phase, and G2M phase, as obtained on the live cell gate, with all concentrations of the compound.
Live Jurkat cells suspended in RPMI media+10% FBS were stained with 5 μM, 10 μM, and 20 μM Compound 20 and analyzed with flow cytometry, as described in Example 42.

Data set [2] relates to Live Jurkat cells. Kind of data set: Comparison of DNA stains on cell viability (Example 44). It is filed as cell-based. The conditions noted are these: for % Dead Cells: ethidium homodimer-1. The procedure:
Live Jurkat cells are suspended at 5×10^5 cells/ml in complete RPMI media with 10% FBS. Four aliquots of 10 ml each of the cell suspension are made. A final concentration of 5 μM Hoechst 33342 (Invitrogen Corporation) is added to one aliquot, a final concentration of 5 μM DRAQ5 (Biostatus Limited, UK) is added to one aliquot, a final concentration of 5 μM Compound 9 is added to one aliquot, and one aliquot remains untreated as a control. All four aliquots are placed in a 37° C. waterbath for 30 minutes in protected from light. After the incubation, all cell suspensions are centrifuged, the cells are pelleted and the supernatant discarded. To each aliquot, 5 ml media is added. Four culture flasks are prepared by adding 35 ml media to each. One 5 ml aliquot of cells is added to one flask for each on the four cell suspensions aliquots. The flasks are placed in a 37° C. incubator with 5% CO2 in the dark for 72 hours. Each flask of cells is then gently mixed and cell suspension is removed for testing. The cell concentration and image is performed using the Cellometer instrument from Nexcelom. Percentage and absolute cell counts of live and dead cells for each treatment are determined using the LIVE/DEAD Viability/Cytotoxicity Kit (Invitrogen Corporation, Carlsbad, Calif.) with COUNTBRIGHT Absolute Counting Beads (Invitrogen Corporation). This involves adding one ml cell suspension to a 12×75 mm test tube and adding 2 μl of a 50 μM calcein AM solution to identify living cells and 4 μl of a 2 mM ethidium homodimer-1 solution to identify dead cells. The cell suspension is mixed and incubated for 20 minutes at room temperature protected from light. After the end of the incubation, 50 μl of well mixed COUNTBRIGHT absolute counting beads are added to each test tube. Each sample is run through the Becton Dickinson (BD) LSRII Flow Cytometer. Forward Scatter (FS) versus Side Scatter (SS) dual parameter plot is used to gate main cell population, and a separate gate is made around the bead population. Fluorescence is collected using 488 nm excitation laser with 530/30 bandpass and 610/20 bandpass emission filters. Markers on a dual parameter plot of calcein fluorescence versus ethidium homodimer-1 fluorescence is used to obtain percent of cells which are living and dead, as well as number of cell events recorded. By using the COUNTBRIGHT absolute counting beads assay, the absolute number of living and dead cells is calculated by using the equation: A/B×C/D=concentration of cells/μL (A=number of cell events, B=number of bead events, C=assigned bead count, D=volume of the sample in μl).

The subject of data set [3] is HeLa and U2OS cells. It is filed as cell-based. The procedure: HeLa and U2OS cells were stained with DRAQ5, Hoechst 33342, mitoxantrone, and Compound 9 over a range of concentrations to evaluate the effect of the tested DNA stains on cell proliferation over time. HeLa and U2OS cells were plated at 3000 cells/well and allowed to recover overnight before proceeding with dye incubations. Cells were incubated with 0, 1, 5 or 10 μM Compound 9, Hoechst 33342, mitoxantrone, and DRAQ5 for 30 minutes at culture conditions in DPBS with glucose, washed and then placed back into media at culture conditions. Plates were stained with 100 nM YOYO-1 (Invitrogen Corporation) before being fixed and stained with 1:1000 Hoechst 33342 (total cell number) at 24, 48 and 72 hours post dye incubation. Cells were imaged with the ArrayScan VTI immediately following staining and fixation. Data obtained were from repetitions of 4 wells/condition with 10 images taken per well.

Data set [4] relates to Jurkat cells. Description: Comparison of DNA stains for staining live cells, post-sort viability and growth (Example 45). It is filed as cell-based. The conditions noted are these: 5 μM. The procedure: Jurkat cells were suspended at 5×10^5 cells/ml in complete RPMI media with 10% FBS and stained with either 5 μM Compound 9, 5 μM Hoechst 33342, or 5 μM DRAQ5 for 30 minutes at 37° C. protected from light. A control sample was also prepared with no dye treatment. Cells were washed and resuspended at 1×10^7 cells/ml in Complete RPMI+10% FBS media for sorting. Approximately 2 million Jurkat cells were sorted for each treatment by gating on the main cell population by scatter using a BD FACS Aria cell sorter. Cells were washed and plated at 1×10^5 cells/ml in complete media and grown at 37 C with 5% CO2. Cell Viability was assayed using the LIVE/DEAD Viability/Cytotoxicity Kit at 1, 2, and 3 days post sort (as described in Example 44). Brightfield images of cell growth after 8 days cell growth were collected. […] The percent of live cells decreased similarly in both Compound 9 and Hoechst 33342 treatments.

[5] abbreviates: 20 μM, RPMI media+10% FBS, blue 488 laser, 780/60 emission.
[6] abbreviates: 20 μM, RPMI media+10% FBS, red 633 nm laser, 780/60 emission.
Setting [7] is: 5 μM dye 30 min 37° C., then 72 hours culture.

On to `CN(C)CCNC(=O)CNc1ccc(O)c2c1C(=O)c1c(N)ccc(O)c1C2=O` [Compound 19], for which the “% CV of G1-phase” value in data set [1] (setting [5]) is 8.0%; in data set [1] (setting [6]), 6.43%; in data set [1] (5, 10, 20 μM, MODFIT analysis), less than 8%. For the same compound, the G2/G1 ratio is reported as 1.86 in data set [1] (setting [5]) and 1.83 in data set [1] (setting [6]).

On to `CN(C)CCNc1ccc(O)c2c1C(=O)c1c(O)ccc(NCCN(C)C)c1C2=O` [DRAQ5], for which, in data set [2] (setting [7]), the “% Dead Cells” value was found to be 95.7%. In data set [3], the “membrane permeability indicated by YOYO-1” value is “high membrane permeability”.

For the compound `CN(C)CCNC(=O)CNc1ccc(N)c2c1C(=O)c1c(O)ccc(O)c1C2=O` [Compound 20], in data set [1] (setting [6]), the “% CV of G1-phase” value was 6.41% and the G2/G1 ratio stood at 1.84.

In the case of `CCOc1ccc(-c2nc3ccc(-c4nc5ccc(N6CCN(C)CC6)cc5[nH]4)cc3[nH]2)cc1` [Hoechst 33342], in data set [4] (30 min 37° C., sorted, 1, 2 and 3 days post sort), the “post-sort viability / cytotoxicity” value is on record as “very similar in post-sort viability, but less than non-stained control cells”. For the same compound, the “cell growth after sort” value in data set [4] (day 3 and 8 days post sort) is recorded as “beginning to divide again”. In data set [2] (setting [7]), the “Cell Count (Cellometer)” value is 2.6 × 10^5 cells/mL, the “Cell Count (Flow Cytommetry)” value is reported as 0.9 × 10^5 cells/mL and the “% Dead Cells” value came to 39.3%. In addition, the “% Living Cells” value in data set [2] (5 μM dye 30 min 37° C., then 72 hours culture, calcein AM) is 57.7%. For the same compound, the “effect of treatment on cell viability” value in data set [2] (5 μM, 72 hours) is given as “maintained a majority of cells as living”.
